Laboratory results from patent US10077261B2, “Imidazolin-5-one derivative useful as FASN inhibitors for the treatment of cancer” (Janssen Pharmaceutica NV, priority 2012, dated 2018).

Assays:
[1] = target: T1, hFASN enzyme (full length) (Homo sapiens, UniProt P49327); assay: Fatty Acid Synthase (FASN) inhibition scintillation proximity assay; format: biochemical; conditions: for inhibition at 10 µM: read-out: Human FASN % inhibition @ 10 μM, 10 μM test compound; for IC50: read-out: Human FASN pIC50 (converted)
T1 construct: 10 μL hFASN enzyme (full length, 300 ng, purified in house); made in house
T1 sequence (P49327 whole entry): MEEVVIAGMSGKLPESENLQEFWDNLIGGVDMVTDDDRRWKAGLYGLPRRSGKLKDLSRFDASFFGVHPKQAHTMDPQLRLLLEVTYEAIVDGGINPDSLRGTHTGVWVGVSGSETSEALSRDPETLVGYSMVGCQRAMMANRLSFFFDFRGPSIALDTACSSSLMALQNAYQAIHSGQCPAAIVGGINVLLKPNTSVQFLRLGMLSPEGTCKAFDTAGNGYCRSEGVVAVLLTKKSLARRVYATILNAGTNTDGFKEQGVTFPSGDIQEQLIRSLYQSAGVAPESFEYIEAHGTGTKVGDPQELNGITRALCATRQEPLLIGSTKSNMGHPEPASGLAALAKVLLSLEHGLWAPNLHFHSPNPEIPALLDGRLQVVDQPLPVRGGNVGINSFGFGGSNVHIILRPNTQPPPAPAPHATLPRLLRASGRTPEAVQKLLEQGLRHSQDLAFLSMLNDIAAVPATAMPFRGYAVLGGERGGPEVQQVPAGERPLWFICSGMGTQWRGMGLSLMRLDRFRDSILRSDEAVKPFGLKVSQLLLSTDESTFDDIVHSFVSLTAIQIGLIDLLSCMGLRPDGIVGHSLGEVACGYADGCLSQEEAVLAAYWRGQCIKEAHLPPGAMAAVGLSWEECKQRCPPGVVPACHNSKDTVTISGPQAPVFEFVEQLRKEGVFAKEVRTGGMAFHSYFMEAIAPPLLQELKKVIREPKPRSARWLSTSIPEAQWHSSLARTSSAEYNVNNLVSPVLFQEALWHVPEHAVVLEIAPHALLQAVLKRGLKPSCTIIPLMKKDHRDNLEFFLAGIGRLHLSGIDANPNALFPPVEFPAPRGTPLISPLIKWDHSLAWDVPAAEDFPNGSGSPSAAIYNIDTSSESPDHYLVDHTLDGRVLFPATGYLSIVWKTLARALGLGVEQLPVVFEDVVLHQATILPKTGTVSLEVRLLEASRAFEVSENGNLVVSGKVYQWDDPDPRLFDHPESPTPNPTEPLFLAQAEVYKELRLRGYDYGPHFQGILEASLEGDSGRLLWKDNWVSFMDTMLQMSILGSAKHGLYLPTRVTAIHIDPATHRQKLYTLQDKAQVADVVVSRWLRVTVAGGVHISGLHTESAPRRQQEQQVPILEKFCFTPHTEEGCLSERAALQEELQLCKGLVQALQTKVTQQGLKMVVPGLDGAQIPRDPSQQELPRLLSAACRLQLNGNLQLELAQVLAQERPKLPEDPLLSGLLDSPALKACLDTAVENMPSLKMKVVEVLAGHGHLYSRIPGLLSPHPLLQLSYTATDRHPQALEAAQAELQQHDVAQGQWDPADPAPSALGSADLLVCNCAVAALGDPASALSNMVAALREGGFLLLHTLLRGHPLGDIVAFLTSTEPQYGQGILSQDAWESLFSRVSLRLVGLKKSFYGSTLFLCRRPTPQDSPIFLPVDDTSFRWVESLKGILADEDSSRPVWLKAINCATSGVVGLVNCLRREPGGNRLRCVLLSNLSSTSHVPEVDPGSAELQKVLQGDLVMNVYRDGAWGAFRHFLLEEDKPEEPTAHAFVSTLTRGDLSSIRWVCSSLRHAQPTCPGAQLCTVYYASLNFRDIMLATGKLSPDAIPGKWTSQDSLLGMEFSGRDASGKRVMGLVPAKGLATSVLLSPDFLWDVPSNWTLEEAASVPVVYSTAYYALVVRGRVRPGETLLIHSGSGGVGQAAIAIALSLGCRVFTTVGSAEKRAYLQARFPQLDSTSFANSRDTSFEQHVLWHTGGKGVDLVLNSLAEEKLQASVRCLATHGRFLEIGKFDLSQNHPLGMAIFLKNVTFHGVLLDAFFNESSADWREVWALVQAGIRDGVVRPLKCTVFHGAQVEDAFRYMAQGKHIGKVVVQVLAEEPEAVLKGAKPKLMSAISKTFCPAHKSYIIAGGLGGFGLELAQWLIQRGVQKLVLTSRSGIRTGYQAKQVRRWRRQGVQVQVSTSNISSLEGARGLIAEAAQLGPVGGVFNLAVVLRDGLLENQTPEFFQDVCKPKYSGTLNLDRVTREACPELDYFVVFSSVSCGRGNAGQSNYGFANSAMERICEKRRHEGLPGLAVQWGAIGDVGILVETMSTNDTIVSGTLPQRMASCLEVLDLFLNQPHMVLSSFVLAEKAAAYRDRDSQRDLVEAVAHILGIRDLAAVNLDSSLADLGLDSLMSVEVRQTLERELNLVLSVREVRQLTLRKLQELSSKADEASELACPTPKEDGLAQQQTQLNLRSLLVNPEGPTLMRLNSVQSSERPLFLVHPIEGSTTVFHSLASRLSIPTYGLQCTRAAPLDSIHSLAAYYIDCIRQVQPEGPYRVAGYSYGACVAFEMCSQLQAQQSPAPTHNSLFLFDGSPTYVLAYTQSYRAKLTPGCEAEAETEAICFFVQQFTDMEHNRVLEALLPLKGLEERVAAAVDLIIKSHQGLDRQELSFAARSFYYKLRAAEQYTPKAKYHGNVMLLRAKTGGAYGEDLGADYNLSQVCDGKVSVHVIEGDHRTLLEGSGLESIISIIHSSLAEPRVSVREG
Summary of the method: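 Purified full-length hFASN (300 ng) converts ^3H-acetyl-CoA plus malonyl-CoA to ^3H-palmitate in 100 mM KH2PO4 pH 7.5, 1 mM DTT; compounds tested at 0.01–30 μM. Product captured on streptavidin imaging beads and read by LEADseeker at 610 nm after ≥24 h; 4-parameter logistic fit versus controls.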

A2780 ovarian cells [2] = assay: A2780 ovarian cell proliferation assay in lipid reduced medium, with palmitate (MTT); format: cell-based; conditions: Homo sapiens, A2780, 96 h; read-out: pIC50 A2780 Ovarian Cell, With Palmitate (converted)
Protocol: (§1) The biological assays described below correspond to comparative assays for ovarian cell proliferation. […] Compounds active in the absence of palmitate would not be expected to be active in the control.
(§2) 2500 cells were seeded in a 96-well clear well plate in 200 μL RPMI1640 with 10% Fetal Calf Serum (Hyclone), and incubated at 37° C., 5% CO2. Blanks were wells without cells. The next day the culture medium was aspirated and replaced by 160 μL culture medium with 10% Lipid-Reduced Serum (LRS, Hyclone). 20 μL test compound (at concentrations of 30 μM, 10 μM, 3 μM, 1 μM, 0.30 μM, 0.10 μM, 0.03 μM and 0.01 μM)/DMSO dilution followed by 20 μL palmitate-BSA solution were added to a final concentrations of 0.2% DMSO, 25 μM palmitate (Sigma, P0500, 10 mM stock solution in ethanol) 0.2% fatty-acid-free BSA, 0.25% ethanol. After 96 h incubation, an MTT assay was performed. The absorbance was measured at 544 nm on a SPECTRAMAX brand microplate reader (Molecular Devices).
A best fit curve was fitted by a minimum sum of squares method, plotting Controlmin versus test compound concentration.
(§3) Representative compounds of the present invention were tested according to the procedure as described in Biological Example 3 above, with results as listed in Table 8, below.

A2780 ovarian cells [3] = assay: A2780 ovarian cell proliferation assay in lipid reduced medium, without palmitate (MTT); format: cell-based; conditions: Homo sapiens, A2780, 96 h; read-out: pIC50 A2780 Ovarian Cell, Without Palmitate (converted)
Protocol: as §1
as §2, with “ethanol-BSA” for “palmitate-BSA”, “DMSO,” for “DMSO, 25 μM palmitate (Sigma, P0500, 10 mM stock solution in ethanol)”, “incubation” for “incubation,”
where mLC and mHC were the means of the low control wells and high control wells on the plate, after manual exclusion of outliers. A plot of Controlmin versus test compound concentration was fitted to a 4-parameter logistic curve using a non-linear least squares regression method.
as §3

| SMILES | inhibition at 10 µM [1] [%] | IC50 [1] [µM] | IC50 (A2780 ovarian cells [2]) [µM] | IC50 (A2780 ovarian cells [3]) [µM] |
| --- | --- | --- | --- | --- |
| O=C(C1CC1)N1CC(CN2C(=O)C3(CC3)N=C2c2ccc(-c3ccc4c(cnn4CCO)c3)cc2F)C1 [compound 527, 6-{[1-(Cyclopropylcarbonyl)azetidin-3-yl]methyl}-5-{2-fluoro-4-[1-(2-hydroxyethyl)-1H-indazol-5-yl]phenyl}-4,6-diazaspiro[2.4]hept-4-en-7-one] | 83 | 1.58 | > 10 | ~1.95 |
| COC(=O)N1CC(CN2C(=O)C3(CCOCC3)N=C2c2ccc(-c3ccc4cccnc4c3)cc2)C1 [compound 922, methyl 3-((4-oxo-2-(4-(quinolin-7-yl)phenyl)-8-oxa-1,3-diazaspiro[4.5]dec-1-en-3-yl)methyl)azetidine-1-carboxylate] | 38 | > 10 | > 10 | > 10 |
| Cc1cc(-c2ccc3ccc(Br)cc3n2)ccc1C1=NC2(CC2)C(=O)N1CC1CN(C(=O)C2(C)CC2)C1 [compound 595, 5-[4-(7-Bromoquinolin-2-yl)-2-methylphenyl]-6-({1-[(1-methylcyclopropyl)carbonyl]azetidin-3-yl}methyl)-4,6-diazaspiro[2.4]hept-4-en-7-one] | 83 | 1.35 | 6.61 | 3.24 |
| O=C(C1CC1)N1CC[C@@H](CN2C(=O)C3(CC3)N=C2c2ccc(-c3ccc(-c4cccnc4)cc3)cc2)C1 [compound 122, 6-{[(3R)-1-(Cyclopropylcarbonyl)pyrrolidin-3-yl]methyl}-5-(4′-pyridin-3-ylbiphenyl-4-yl)-4,6-diazaspiro[2.4]hept-4-en-7-one] | 112 | 0.123 | ~10 | 0.234 |
| Cc1cc(Cl)c2ccc(-c3ccc(C4=NC5(CC5)C(=O)N4CC4CN(C(=O)C5CC5)C4)cc3)cc2n1 [compound 535, 5-[4-(4-Chloro-2-methylquinolin-7-yl)phenyl]-6-{[1-(cyclopropylcarbonyl)azetidin-3-yl]methyl}-4,6-diazaspiro[2.4]hept-4-en-7-one] | 53 | – | 7.76 | 6.61 |
| CS(=O)(=O)N1CCC(CN2C(=O)C3(CCOC3)N=C2c2ccc(-c3ccc4cccnc4c3)cc2)C1 (stereo not drawn) [compound 896, 3-((1-(methylsulfonyl)pyrrolidin-3-yl)methyl)-2-(4-(quinolin-7-yl)phenyl)-7-oxa-1,3-diazaspiro[4.4]non-1-en-4-one] | 10 | > 10 | > 10 | > 10 |
| Cc1cc(-c2ccc3c(Cl)nn(C)c3c2)ccc1C1=NC2(CC2)C(=O)N1CC1CN(C(=O)C2CC2)C1 [compound 590, 5-[4-(3-Chloro-1-methyl-1H-indazol-6-yl)-2-methylphenyl]-6-{[1-(cyclopropylcarbonyl)azetidin-3-yl]methyl}-4,6-diazaspiro[2.4]hept-4-en-7-one] | 80 | 1.74 | > 10 | 3.31 |
| O=C(C1CC1)N1CC(CN2C(=O)C3(CCCC3)N=C2c2ccc(-c3ccc4[nH]ccc4c3)cc2)C1 [compound 78, 3-{[1-(Cyclopropylcarbonyl)azetidin-3-yl]methyl}-2-[4-(1H-indol-5-yl)phenyl]-1,3-diazaspiro[4.4]non-1-en-4-one] | 111 | – | > 10 | 0.148 |
| Cn1cc(-c2ccc(-c3ccc(C4=NC5(CC5)C(=O)N4C[C@@H]4CCN(C(=O)C5(C)CC5)C4)c(F)c3)cc2)cn1 [compound 364, (R)-5-(3-fluoro-4′-(1-methyl-1H-pyrazol-4-yl)-[1,1′-biphenyl]-4-yl)-6-((1-(1-methylcyclopropanecarbonyl)pyrrolidin-3-yl)methyl)-4,6-diazaspiro[2.4]hept-4-en-7-one] | 89 | 0.0575 | 0.229 | ~0.00295 |
| O=C(C1CC1)N1CC(CN2C(=O)C3(CC3)N=C2c2ccc(-c3ccc4ccc(Cl)nc4c3)cc2)C1 [compound 540, 5-[4-(2-Chloroquinolin-7-yl)phenyl]-6-{[1-(cyclopropylcarbonyl)azetidin-3-yl]methyl}-4,6-diazaspiro[2.4]hept-4-en-7-one] | 64 | 5.01 | 9.33 | 4.47 |
| O=C(CC(F)(F)F)N1CC[C@@H](CN2C(=O)C3(CCCC3)N=C2c2ccc(-c3ccc4occc4c3)cc2)C1 [compound 119, 2-[4-(1-Benzofuran-5-yl)phenyl]-3-{[(3R)-1-(3,3,3-trifluoropropanoyl)pyrrolidin-3-yl]methyl}-1,3-diazaspiro[4.4]non-1-en-4-one] | 107 | 0.174 | 11 | ~2.24 |
| O=C(C1CC1)N1CC(CN2C(=O)C3(CC3)N=C2c2ccc(-c3ccc4c(Cl)ccnc4c3)cc2)C1 [compound 563, 5-[4-(4-Chloroquinolin-7-yl)phenyl]-6-{[1-(cyclopropylcarbonyl)azetidin-3-yl]methyl}-4,6-diazaspiro[2.4]hept-4-en-7-one] | 88 | 0.631 | > 10 | 3.16 |
| Cn1cc(-c2ccc(-c3ccc(C4=NC5(CCOC5)C(=O)N4CC4CCN(C(=O)c5nccs5)C4)cc3)cc2)cn1 (stereo not drawn) [compound 943, 2-(4′-(1-methyl-1H-pyrazol-4-yl)-[1,1′-biphenyl]-4-yl)-3-((1-(thiazole-2-carbonyl)pyrrolidin-3-yl)methyl)-7-oxa-1,3-diazaspiro[4.4]non-1-en-4-one] | 9 | > 10 | > 10 | > 10 |
| CC(C)S(=O)(=O)c1cccc(-c2ccc(C3=NC4(CC4)C(=O)N3CC3CN(C(=O)C4CC4)C3)c(F)c2)c1 [compound 631, 6-{[1-(Cyclopropylcarbonyl)azetidin-3-yl]methyl}-5-{3-fluoro-3′-[(1-methylethyl)sulfonyl]biphenyl-4-yl}-4,6-diazaspiro[2.4]hept-4-en-7-one] | 47 | 8.51 | > 10 | 5.89 |
| CS(=O)(=O)N1CC(CN2C(=O)C3(CCOC3)N=C2c2ccc(-c3ccc4occc4c3)cc2)C1 (stereo not drawn) [compound 898, 2-(4-(benzofuran-5-yl)phenyl)-3-((1-(methylsulfonyl)azetidin-3-yl)methyl)-7-oxa-1,3-diazaspiro[4.4]non-1-en-4-one] | 6 | > 10 | > 10 | > 10 |
| CS(=O)(=O)c1cccc(-c2ccc(C3=NC4(CC4)C(=O)N3CC3CN(C(=O)C4CC4)C3)c(F)c2)c1 [compound 777, 6-((1-(cyclopropanecarbonyl)azetidin-3-yl)methyl)-5-(3-fluoro-3′-(methylsulfonyl)-[1,1′-biphenyl]-4-yl)-4,6-diazaspiro[2.4]hept-4-en-7-one] | 34 | > 10 | > 10 | 9.55 |
| CC1(C(=O)N2CC[C@@H](CN3C(=O)C4(CCCC4)N=C3c3ccc(-c4ccc5occc5c4)cc3)C2)CC1 [compound 116, (R)-2-(4-(Benzofuran-5-yl)phenyl)-3-((1-(1-methylcyclopropanecarbonyl)pyrrolidin-3-yl)methyl)-1,3-diazaspiro[4.4]non-1-en-4-one] | 121 | 0.0282 | ~3.02 | 0.0355 |
